{"source": "patent US20040097468A1", "about": "“Method of treating osteoporosis and other bone disorders with upfront loading of bisphosphonates, and kits for such treatment” (priority 2002, published 2004)", "key": {"humans": {"test_system": "humans", "experiment": "Spinal (vertebral) BMD, loading vs standard doses of bisphosphonates over one year", "type": "in vivo, human", "protocol": "FIG. 4. illustrates the effects of standard recommended dose of risedronate (35 mg once a week), vs. loading dose of risedronate (for doses, see the section on oral administration of bisphosphonates) on vertebral BMD.\nThis will then be followed up with once weekly administration (i.e., infrequent administration) of a single dose of similar strength, what is currently used on a longer-term basis."}, "osteoporotic patients": {"test_system": "osteoporotic patients", "conditions": "intravenous injections 0.5 or 1.0 mg every 3 months for 3 years; cited from earlier work"}}}
{"smiles": "NCCCC(O)(P(=O)(O)O)P(=O)(O)O", "note": "[alendronate, 4-amino-1-hydroxybutylidene-1,1-bisphosphonic acid monosodium trihydrate]", "values": [{"measurement": "Increase in spinal BMD", "setting": "humans; alendronate loading dose, 3 months", "value": "+1.2%"}, {"measurement": "Increase in spinal BMD", "setting": "humans; alendronate loading dose, 6 months", "value": "+3.6%"}, {"measurement": "Increase in spinal BMD", "setting": "humans; alendronate loading dose, 12 months", "value": "+5.8%"}, {"measurement": "Increase in spinal BMD", "setting": "humans; alendronate standard dose (70 mg once a week), 3 months", "value": "+0.4%"}, {"measurement": "Increase in spinal BMD", "setting": "humans; alendronate standard dose (70 mg once a week), 6 months", "value": "+1.1%"}, {"measurement": "Increase in spinal BMD", "setting": "humans; alendronate standard dose (70 mg once a week), 12 months", "value": "+4.5%"}]}
{"smiles": "CCCCCN(C)CCC(O)(P(=O)(O)O)P(=O)(O)O", "note": "[ibandronate, 1-hydroxy-3-(N-methyl-N-pentylamino)propylidene-1,1-bisphosphonic acid]", "values": [{"measurement": "Change in BMD", "setting": "osteoporotic patients", "value": "moderate increase in BMD"}, {"measurement": "Change in incidence of new osteoporotic fractures", "setting": "osteoporotic patients", "value": "small, but not significant, decrease"}]}
{"smiles": "O=P(O)(O)C(O)(Cc1cccnc1)P(=O)(O)O", "note": "[risedronate, 1-hydroxy-2-(3-pyridinyl)-ethylidene-1,1-bisphosphonic acid]", "values": [{"measurement": "Increase in spinal BMD", "setting": "humans; risedronate loading dose, 3 months", "value": "+1.5%"}, {"measurement": "Increase in spinal BMD", "setting": "humans; risedronate loading dose, 6 months", "value": "+4.0%"}, {"measurement": "Increase in spinal BMD", "setting": "humans; risedronate loading dose, 12 months", "value": "+5.6%"}, {"measurement": "Increase in spinal BMD", "setting": "humans; risedronate standard dose (35 mg once a week), 3 months", "value": "+0.4%"}, {"measurement": "Increase in spinal BMD", "setting": "humans; risedronate standard dose (35 mg once a week), 6 months", "value": "+2.2%"}, {"measurement": "Increase in spinal BMD", "setting": "humans; risedronate standard dose (35 mg once a week), 12 months", "value": "+4.3%"}]}
